From patent publication US8288380B2, “Thiophenediamine derivative having urea structure” (Santen Pharmaceutical Co., Ltd., priority 2008, dated 2012)

Experiments:
[1] = tested on: HDAC (HeLa nuclear extract); assay: Test for evaluation of HDAC inhibitory activity (HDAC Fluorimetric Assay/Drug Discovery Kit, Biomol); type: biochemical; conditions: final concentration of the test compound 30 μM, values more than 100% shown as 100%
Experimental: Using HDAC Fluorimetric Assay/Drug Discovery Kit (manufactured by Biomol), HDAC inhibitory activity of the present compounds was measured according to the protocol included with the kit. The kit contains Buffer, HeLa nuclear extract (includes HDAC), Substrate, Developer and Trichostatin A HDAC inhibitor).
A test compound was dissolved in dimethyl sulfoxide (hereinafter referred to as “DMSO”), whereby a 2 mg/mL solution was prepared. Then, the resulting solution was diluted with Buffer containing 5% DMSO, whereby a 150 μM test compound solution was prepared.
1) To a 384-well culture plate, the test compound solution was added in an amount of 2 μL per well.
2) HeLa nuclear extract was diluted 30-fold with Buffer. The resulting solution was added in an amount of 3 μL per well, and then incubation was performed at 37° C. for 2 hours.
3) Substrate was diluted 500-fold with Buffer. The resulting solution was added in an amount of 5 μL per well (the final concentration of the test compound was 30 μM), and then incubation was performed at 37° C. for 10 minutes.
4) Developer was diluted 20-fold with Buffer and Trichostatin A (2 μM) was added to it. The resulting solution was added in an amount of 10 μL per well, and then incubation was performed at room temperature for 15 minutes.
5) The fluorescence intensity of each well was measured using multilabel counter ARVO (manufactured by Wallac) with excitation at 360 nm and emission at 460 nm.
6) A control data was obtained from the same experiment except that Buffer containing 5% DMSO was added instead of the test compound solution as the above-mentioned procedure from 1) to 5).
7) A blank data was obtained from the same experiment except that Buffer containing 5% DMSO was added instead of the test compound solution and that Buffer was added instead of Hela nuclear extract as the above-mentioned procedure from 1) to 5).
Enzyme inhibitory rate (%) was calculated using the following equation. (Enzyme Inhibitory Rate(%))=100×[1−{(Fluorescence Intensity of Test Compound Solution)−(Florescence Intensity of Blank)}/{(Florescence Intensity of Control)−(Florescence Intensity of Blank)}] (Test Results)

[2] = tested on: human trabecular meshwork cell line (TM-1 cells); assay: Test for evaluation of effect of morphological change on trabecular meshwork cells (cell shape index, CSI); type: cell-based; conditions: final concentration 10 μM, 24 hours incubation, Control 0.694, lower CSI indicates greater morphological changes
Description: Further, as a result of studying an effect morphological change of the present compound on trabecular meshwork cells, i.e., an effect of morphological change of the present compound on trabecular meshwork cells in an evaluation system using the cell shape index (hereinafter referred to as “CSI”) reported in The Journal of Clinical Investigation, 103, 1141-1150 (1999) as an index, it was found the present compound has an excellent effect of morphological change on trabecular meshwork cells.
As a method for evaluating a cellular morphological change, an evaluation system using the cell shape index (hereinafter referred to as “CSI”) as an index has been reported in The Journal of Clinical Investigation, 103, 1141-1150 (1999). Therefore, according to the method described in the above document, an effect of morphological change of the present compounds on trabecular meshwork cells was evaluated.
A human trabecular meshwork cell line (hereinafter referred to as “TM-1 cells”) reported in Investigative Ophthalmology & Visual Science, 43, 151-161 (2002) was used.
Culture medium 1: A reagent was prepared by adding fetal bovine serum (10%), L-glutamine (2 mM), amphotericin B ([…]), and gentamicin (25 μg/mL) to Dulbecco's Modified Eagle Medium (hereinafter referred to as “D-MEM”).
Culture medium 2: A reagent was prepared by adding fetal bovine serum (3%), L-glutamine (2 mM), amphotericin B (2.5 μg/mL), and gentamicin (25 μg/mL) were added to D-MEM.
Cell staining liquid: A mixed liquid of Calcein-AM (16 μM) and Hoechst 33342 (40 μM) was prepared by diluting a Calcein-AM solution (cytoplasmic staining reagent, manufactured by Dojindo Laboratories) and a Hoechst 33342 solution (nuclear staining reagent, manufactured by Dojindo Laboratories) with D-MEM containing L-glutamine (2 mM), amphotericin B (2.5 μg/mL), and gentamicin (25 μg/mL).
TM-1 cells subcultured at 37° C. in a 8% carbon dioxide gas atmosphere were treated with a trypsin/EDTA solution (0.05% trypsin and 0.53 mM tetrasodium ethylenediaminetetraacetate) at 24 hours before performing a drug treatment mentioned below and seeded on a 96-well culture plate. The culture medium 1 was used for the subculture of the cells. The culture medium 2 was used for the cell culture after seeding the cells on the plate.
A test compound was dissolved in DMSO, whereby a 5 mM solution was prepared. Then, the resulting solution was diluted with the culture medium 2, whereby a 200 μM test compound solution was prepared.
It has been reported that Y-27632 which is a Rho kinase inhibitor induces a morphological change in trabecular meshwork cells in Investigative Ophthalmology & Visual Science, 42, 137-144 (2001). Therefore, Y-27632 (produced according to the method described in WO 90/05723) was used as a positive control, and dissolved in DMSO in the same manner as the test compound, whereby a 5 mM solution was prepared, and then, the resulting solution was diluted with the culture medium 2, whereby a 200 μM positive control compound solution was prepared.
1) To a 96-well culture plate, a solution of TM-1 cells adjusted to a cell density of […] was added in an amount of 95 μL (1.5×10^4 cells) per well.
2) Incubation was performed at 37° C. in a 8% carbon dioxide gas atmosphere for 24 hours.
3) The test compound solution or positive control compound solution was added in an amount of 5 μL per well (the final concentration of the test compound or positive control compound was 10 μM). As a control, the culture medium 2 containing DMSO (4%) was added in an amount of 5 μL per well.
4) Incubation was performed at 37° C. in a 8% carbon dioxide gas atmosphere for 24 hours.
5) The cell staining liquid was added in an amount of 10 μL per well.
6) Incubation was performed at 37° C. in a 8% carbon dioxide gas atmosphere for 1 hour to stain the cells.
7) A 37% formaldehyde solution was added in an amount of 10 μL per well.
8) Incubation was performed at room temperature for 1 hour to fix the cells. […]

| Compound | Enzyme Inhibitory Rate (%) [1] [%] | CSI [2] |
| --- | --- | --- |
| CN(C)CCN(Cc1ccc(C(=O)Nc2cscc2N)nc1)C(=O)Nc1ccc2c(c1)OCCO2 [Compound No. 1-1, N-(4-Aminothiophen-3-yl)-5-[3-(2,3-dihydrobenzo[1,4]dioxin-6-yl)-1-(2-dimethylaminoethyl)ureidomethyl]pyridine-2-carboxylic acid amide] | 97 | 0.527 |
| Nc1cscc1NC(=O)c1ccc(CN(CCCCN2CCOCC2)C(=O)NCCc2ccccc2)cn1 [Compound No. 1-59, N-(4-Aminothiophen-3-yl)-5-[1-[4-(morpholin-4-yl)butyl]-3-phenethylureidomethyl]pyridine-2-carboxylic acid amide] | 97 | 0.500 |
| CN(C)CCN(Cc1ccc(C(=O)Nc2cscc2N)nc1)C(=O)Nc1ccsc1 [Compound No. 1-7, N-(4-Aminothiophen-3-yl)-5-[1-(2-dimethylaminoethyl)-3-(thiophen-3-yl)ureidomethyl]pyridine-2-carboxylic acid amide] | 100 | 0.523 |
| Nc1cscc1NC(=O)c1ccc(CN(CCN2CCCC2)C(=O)NC2CCCC2)cn1 [Compound No. 1-71, N-(4-Aminothiophen-3-yl)-5-[3-cyclopentyl-1-[2-(pyrrolidin-1-yl)ethyl]ureidomethyl]pyridine-2-carboxylic acid amide] | 100 | 0.481 |
| Nc1cscc1NC(=O)c1ccc(CN(CCCN2CCOCC2)C(=O)NC2CCCC2)cn1 [Compound No. 1-34, N-(4-Aminothiophen-3-yl)-5-[3-cyclopentyl-1-[3-(morpholin-4-yl)propyl]ureidomethyl]pyridine-2-carboxylic acid amide] | 97 | 0.516 |
| C[C@@H](N)[C@H]1CC[C@H](C(=O)Nc2ccncc2)CC1 [Y-27632, reference compound] |  | 0.627 |
| CN(C)CCN(Cc1ccc(C(=O)Nc2cscc2N)nc1)C(=O)NCCc1ccccc1 [Compound No. 1-8, N-(4-Aminothiophen-3-yl)-5-[1-(2-dimethylaminoethyl)-3-phenethylureidomethyl]pyridine-2-carboxylic acid amide] | 96 | 0.548 |
| CN(C)CCCN(Cc1ccc(C(=O)Nc2cscc2N)nc1)C(=O)Nc1ccsc1 [Compound No. 1-24, N-(4-Aminothiophen-3-yl)-5-[1-(3-dimethylaminopropyl)-3-(thiophen-3-yl)ureidomethyl]pyridine-2-carboxylic acid amide] | 100 | 0.509 |
| CN(C)CCN(Cc1ccc(C(=O)Nc2cscc2N)nc1)C(=O)Nc1ccc(F)c(F)c1 [Compound No. 1-18, N-(4-Aminothiophen-3-yl)-5-[3-(3,4-difluorophenyl)-1-(2-dimethylaminoethyl)ureidomethyl]pyridine-2-carboxylic acid amide] | 97 | 0.519 |
| CC(C)NC(=O)N(CCCN1CCN(C)CC1)Cc1ccc(C(=O)Nc2cscc2N)nc1 [Compound No. 1-56, N-(4-Aminothiophen-3-yl)-5-[3-isopropyl-1-[3-(4-methylpiperazin-1-yl)propyl]ureidomethyl]pyridine-2-carboxylic acid amide] | 97 | 0.422 |

Continued, in another order:

| Enzyme Inhibitory Rate (%) [1] [%] | Compound | CSI [2] |
| --- | --- | --- |
| 97 | CN(C)CCN(Cc1ccc(C(=O)Nc2cscc2N)nc1)C(=O)Nc1nccs1 [Compound No. 1-103, N-(4-Aminothiophen-3-yl)-5-[1-(2-dimethylaminoethyl)-3-(thiazol-2-yl)ureidomethyl]pyridine-2-carboxylic acid amide] | 0.496 |
| 95 | CCOC(=O)CNC(=O)N(CCCN1CCOCC1)Cc1ccc(C(=O)Nc2cscc2N)nc1 [Compound No. 1-88, N-(4-Aminothiophen-3-yl)-5-[3-ethoxycarbonylmethyl-1-[3-(morpholin-4-yl)propyl]ureidomethyl]pyridine-2-carboxylic acid amide] | 0.539 |
| 97 | CN(C)CCN(Cc1ccc(C(=O)Nc2cscc2N)nc1)C(N)=O [Compound No. 1-104, N-(4-Aminothiophen-3-yl)-5-[1-(2-dimethylaminoethyl)ureidomethyl]pyridine-2-carboxylic acid amide] | 0.505 |
| 100 | CN1CCN(CCN(Cc2ccc(C(=O)Nc3cscc3N)nc2)C(=O)NCCc2ccc3c(c2)OCO3)CC1 [Compound No. 1-77, N-(4-Aminothiophen-3-yl)-5-[2-[3-(benzo[1,3]dioxol-5-yl)]ethyl-1-[2-(4-methylpiperazin-1-yl)ethyl]ureidomethyl]pyridine-2-carboxylic acid amide] | 0.515 |
